Values quoted from earlier work as cited in patent US8389248B2, “Deoxyketohexose isomerase and method for producing deoxyhexose and derivative thereof using same” (priority 2006, dated 2013).

System: L-rhamnose isomerase
Settings: for Influence of chelating agents on enzyme activity: chelating agent concurrently present during the assay of the activity

SMILES	Influence of chelating agents on enzyme activity	Influence of metal ions: inhibition of the enzyme (1 mM)
O=C(O)CN(CCN(CC(=O)O)CC(=O)O)CC(=O)O [EDTA]	hardly inhibited	
[Co+2] [cobalt ion]		about 30%
O=C(O)CN(CCOCCOCCN(CC(=O)O)CC(=O)O)CC(=O)O [EGTA]	hardly inhibited	
